Laboratory results: patent US20060281071A1, “Stearoyl-CoA desaturase assay” (priority 2005, published 2006)

Legend:
mSCD3 [1] = biological target: T1, mSCD3 (Mus musculus, UniProt Q99PL7, V119A); assay: Conversion of saturated fatty acids to Δ9 monounsaturated fatty acids in ole1 yeast L8-14C expressing mSCD3 (GLC); format: cell-based; parameters: Cloning of the full-length human and mouse SCD cDNAs: The full coding region of human SCDs; expressed in transfected cells; host or cells: Saccharomyces cerevisiae L8-14C (ole1 disruptant), vector p426GPD; conditions: for conversion of exogenous saturated fatty acid to Δ9 monounsaturated fatty acid: exogenous fatty acid 0.2 mM, 1% tergitol NP-40, yeast cultured 2 days (FIG. 2)
T1 sequence (Q99PL7 1-359 V119A): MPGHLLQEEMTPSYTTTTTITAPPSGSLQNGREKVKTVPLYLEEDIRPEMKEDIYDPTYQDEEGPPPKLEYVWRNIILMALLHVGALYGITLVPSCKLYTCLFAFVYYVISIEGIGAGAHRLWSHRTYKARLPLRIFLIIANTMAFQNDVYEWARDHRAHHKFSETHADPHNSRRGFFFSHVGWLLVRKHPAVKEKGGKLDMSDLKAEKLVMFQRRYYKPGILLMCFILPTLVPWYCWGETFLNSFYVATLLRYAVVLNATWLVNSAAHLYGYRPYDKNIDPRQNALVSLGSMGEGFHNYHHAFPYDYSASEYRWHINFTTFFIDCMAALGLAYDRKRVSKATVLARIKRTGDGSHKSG

mSCD3 [2] = biological target: T1, mSCD3; assay: Δ9-desaturase activity in microsomes of Hela cells over-expressing mSCD3; format: biochemical; parameters: Cloning of the full-length human and mouse SCD cDNAs: The full coding region of human SCDs; expressed in transfected cells; conditions: Hela microsomes 100 μg, 14C-acyl-CoA, NADH (FIG. 3)

Structure (SMILES)	conversion of exogenous saturated fatty acid to Δ9 monounsaturated fatty acid (mSCD3 [1])	further results
CCCCCCCCCCCCC(=O)O [13:0, tridecanoic acid]	32%	
CCCCCCCCCCCCCC(=O)O [14:0, myristic acid]	more than 50%	
CCCCCCCCCCCCCCCC(=O)SCCNC(=O)CCNC(=O)[C@H](O)C(C)(C)COP(=O)(O)OP(=O)(O)OC[C@H]1O[C@@H](n2cnc3c(N)ncnc32)[C@H](O)[C@@H]1OP(=O)(O)O [16:0-CoA, palmitoyl-CoA]		Δ9-desaturase activity towards 16:0-CoA relative to 18:0-CoA (mSCD3 [2]): 16 fold
CCCCCCCCCCCCCCCC(=O)O [16:0]		% conversion of fatty acid to Δ9 monounsaturated fatty acid (mSCD3 [1]; endogenous fatty acid, L8-14C transformant, YPD lacking unsaturated fatty acids, 3 days): 49%
CCCCCCCCCCCCCCCCC(=O)O [17:0, heptadecanoic acid]	undetectable	
CCCCCCCCCCCCCCCCCCCC(=O)O [C20:0, eicosanoic acid]	None of Δ9-desaturase was able to utilize	
